Target: KRAS (aa 1-169) G12C, C51S, C80L, C118S (Homo sapiens (Human), UniProt P01116, C118S/C51S/C80L/G12C)
Experiment: Biochemical functional assay: SOS1-mediated nucleotide exchange of GDP-loaded KRAS G12C, binding to GST-cRaf RBD, FRET readout
Details: 3 hrs pre-incubation with compound at 24° C., SOS1, GTPyS
Procedure: Biochemical Functional Assay
The KRAS (aa 1-169) G12C, C51S, C80L, C118S with a His-tag was expressed, purified and loaded with GDP in house. All protein and substrate solutions were prepared in assay buffer containing 25 mM HEPES pH7.5, 10 mM MgCl2, and 0.01% Triton X-100. Purified GDP-loaded KRAS (aa 1-169) G12C, C51S, C80L, C118S protein was pre-incubated with a serially diluted compound at 24° C. for 3 hrs. Purified SOS1 (aa 564-1049) protein, GTPyS (Sigma) and GST-cRaf RBD (aa 1-149) were then added to each well and incubated at 24° C. for additional 3 hrs. […] Following the incubation, Mab Anti-6HIS-T cryptate (Cisbio) and Mab Anti GST-XL665 (Cisbio) were added and further incubated at 24° C. for 3 hrs. The binding interaction between active GTPyS KRAS G12C and GST-cRaf RBD brings the Tb and XL665 into close proximity enabling an increased FRET signal (Ex337 nm, Em665 nm/620 nm). The inhibition percentage of nucleotide exchange reaction in presence of increasing concentrations of compounds was calculated based on the ratio of fluorescence at 665 nm to that at 620 nm detected on a BMG PHERAstar FSX instrument. The IC50 value of each compound was calculated from fitting the data to the four-parameter logistic model by Dotmatics.

[1] = inhibition of nucleotide exchange

KRAS (aa 1-169) G12C, C51S, C80L, C118S, sequence (P01116 other isoform, or with tags, fused parts or gaps G12C/C51S/C80L/C118S): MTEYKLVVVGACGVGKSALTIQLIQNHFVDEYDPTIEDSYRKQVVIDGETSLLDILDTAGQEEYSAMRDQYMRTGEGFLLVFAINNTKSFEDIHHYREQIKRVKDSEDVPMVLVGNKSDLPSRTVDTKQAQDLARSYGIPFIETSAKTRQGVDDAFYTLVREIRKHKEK

SMILES	IC50 [1] [µM]	IC50 (bound in uM) [µM]
C=CC(=O)N1CCN(c2ncnc3cc(-c4cccc5ccccc45)c4c(c23)OCCC4)CC1 [Compound A12, 1-(4-(5-(naphthalen-1-yl)-3,4-dihydro-2H-pyrano[2,3-f]quinazolin-10-yl)piperazin-1-yl)prop-2-en-1-one]	1.66	–
C=C(F)C(=O)N1CCN(c2nc(OC[C@]3(C)CCCN3C)nc3cc(-c4cccc5cccc(Cl)c45)c4c(c23)OCCC4)C[C@@H]1CC#N [Compound B60, 2-((S)-4-(5-(8-chloronaphthalen-1-yl)-8-(((S)-1,2-dimethylpyrrolidin-2-yl)methoxy)-3,4-dihydro-2H-pyrano[2,3-f]quinazolin-10-yl)-1-(2-fluoroacryloyl)piperazin-2-yl)acetonitrile]	0.252	–
C=C(F)C(=O)N1CCN(c2nc(OC[C@@H]3C[C@@H](OC)CN3C)nc3cc(-c4cccc5cccc(Cl)c45)c4ccoc4c23)C[C@@H]1CC#N [Compound B20, 2-((S)-4-(4-(8-chloronaphthalen-1-yl)-7-(((2S,4R)-4-methoxy-1-methylpyrrolidin-2-yl)methoxy)furo[2,3-f]quinazolin-9-yl)-1-(2-fluoroacryloyl)piperazin-2-yl)acetonitrile]	0.016	–
C=CC(=O)N1CCN(c2ncnc3cc(-c4c(Cl)c(F)cc5[nH]ncc45)c4c(c23)OCCC4)C[C@@H]1CC#N [Compound A17, 2-((2S)-1-acryloyl-4-(5-(5-chloro-6-fluoro-1H-indazol-4-yl)-3,4-dihydro-2H-pyrano[2,3-f]quinazolin-10-yl)piperazin-2-yl)acetonitrile]	0.0317	–
C=CC(=O)N1CCN(c2nc(O[C@H]3CN(C)C[C@@H]3OC)nc3cc(-c4c(Cl)c(C)cc5[nH]ncc45)c4c(c23)OCCC4)C[C@@H]1CC#N [Compound B3, 2-((2S)-1-acryloyl-4-(5-(5-chloro-6-methyl-1H-indazol-4-yl)-8-(((3S,4S)-4-methoxy-1-methylpyrrolidin-3-yl)oxy)-3,4-dihydro-2H-pyrano[2,3-f]quinazolin-10-yl)piperazin-2-yl)acetonitrile]	0.0065	–
C=CC(=O)N1CCN(c2nc(OCCN(C)C)nc3cc(-c4c(Cl)c(C)cc5[nH]ncc45)c4c(c23)OCCC4)C[C@@H]1CC#N [Compound B5, 2-((2S)-1-acryloyl-4-(5-(5-chloro-6-methyl-1H-indazol-4-yl)-8-(2-(dimethylamino)ethoxy)-3,4-dihydro-2H-pyrano[2,3-f]quinazolin-10-yl)piperazin-2-yl)acetonitrile]	0.0079	–
C=C(F)C(=O)N1CCN(c2nc(OC[C@H]3C[C@@H](OC)CN3C)nc3cc(-c4cccc5cccc(Cl)c45)c4c(c23)OCCC4)C[C@@H]1CC#N (single isomer, unassigned) [Compound B106]	0.00954	–
C=CC(=O)N1CCN(c2ncnc3cc(-c4c(O)cccc4F)c4c(c23)OC(C)(C)CC4)C[C@@H]1CC#N [Compound A3, 2-((2S)-1-acryloyl-4-(5-(2-fluoro-6-hydroxyphenyl)-2,2-dimethyl-3,4-dihydro-2H-pyrano[2,3-f]quinazolin-10-yl)piperazin-2-yl)acetonitrile]	0.559	–
C=C(F)C(=O)N1CCN(c2nc(OC3CCCC3N(C)C)nc3cc(-c4cccc5cccc(Cl)c45)c4c(c23)OCCC4)C[C@@H]1CC#N (stereo partly drawn) [Compound B50, 2-((2S)-4-(5-(8-chloronaphthalen-1-yl)-8-((2-(dimethylamino)cyclopentyl)oxy)-3,4-dihydro-2H-pyrano[2,3-f]quinazolin-10-yl)-1-(2-fluoroacryloyl)piperazin-2-yl)acetonitrile]	0.289	–
C=C(F)C(=O)N1CCN(c2nc(OC[C@@H]3CCCN3C)nc3cc(-c4ccccc4C(F)(F)F)c4c(c23)OCCC4)C[C@@H]1CC#N [Compound B33, 2-((S)-1-(2-fluoroacryloyl)-4-(8-(((S)-1-methylpyrrolidin-2-yl)methoxy)-5-(2-(trifluoromethyl)phenyl)-3,4-dihydro-2H-pyrano[2,3-f]quinazolin-10-yl)piperazin-2-yl)acetonitrile]	0.051	–
C=C(F)C(=O)N1CCN(c2nc(OC[C@@H]3CCN(C)C3)nc3cc(-c4cccc5cccc(Cl)c45)c4c(c23)OCCC4)C[C@@H]1CC#N [Compound B75, 2-((S)-4-(5-(8-chloronaphthalen-1-yl)-8-(((R)-1-methylpyrrolidin-3-yl)methoxy)-3,4-dihydro-2H-pyrano[2,3-f]quinazolin-10-yl)-1-(2-fluoroacryloyl)piperazin-2-yl)acetonitrile]	0.044	–
C=C(F)C(=O)N1CCN(c2nc(OC[C@@H]3CCCN3C)nc3cc(-c4cccc5c4CCCC5)c4c(c23)OCCC4)C[C@@H]1CC#N [Compound B81, 2-((S)-1-(2-fluoroacryloyl)-4-(8-(((S)-1-methylpyrrolidin-2-yl)methoxy)-5-(5,6,7,8-tetrahydronaphthalen-1-yl)-3,4-dihydro-2H-pyrano[2,3-f]quinazolin-10-yl)piperazin-2-yl)acetonitrile]	0.048	–
C=CC(=O)N1CCN(c2nc(N3CC(N(C)C)C3)nc3cc(-c4ccccc4C(F)(F)F)c4c(c23)OCCC4)CC1 [Compound B22, 1-(4-(8-(3-(dimethylamino)azetidin-1-yl)-5-(2-(trifluoromethyl)phenyl)-3,4-dihydro-2H-pyrano[2,3-f]quinazolin-10-yl)piperazin-1-yl)prop-2-en-1-one]	0.568	–
C=C(F)C(=O)N1CCN(c2nc(N3CC(COC)(N(C)C)C3)nc3cc(-c4cccc5cccc(Cl)c45)c4c(c23)OCCC4)C[C@@H]1CC#N [Compound B86, (S)-2-(4-(5-(8-chloronaphthalen-1-yl)-8-(3-(dimethylamino)-3-(methoxymethyl)azetidin-1-yl)-3,4-dihydro-2H-pyrano[2,3-f]quinazolin-10-yl)-1-(2-fluoroacryloyl)piperazin-2-yl)acetonitrile]	0.019	–
C=CC(=O)N1CCN(c2nc(N3CC(N(C)C)C3)nc3cc(-c4ccccc4F)c4c(c23)OCCC4)CC1 [Compound B16, 1-(4-(8-(3-(dimethylamino)azetidin-1-yl)-5-(2-fluorophenyl)-3,4-dihydro-2H-pyrano[2,3-f]quinazolin-10-yl)piperazin-1-yl)prop-2-en-1-one]	–	> 10
C=C(F)C(=O)N1CCN(c2nc(OC[C@@H]3CCCN3C)nc3cc(-c4c(Cl)c(C)cc5[nH]ncc45)c4c(c23)OCC4)C[C@@H]1CC#N [Compound B30, 2-((2S)-4-(4-(5-chloro-6-methyl-1H-indazol-4-yl)-7-(((S)-1-methylpyrrolidin-2-yl)methoxy)-2,3-dihydrofuro[2,3-f]quinazolin-9-yl)-1-(2-fluoroacryloyl)piperazin-2-yl)acetonitrile]	0.0096	–
C=C(F)C(=O)N1CCN(c2nc(OC[C@@H]3CCCN3C)nc3cc(-c4cccc(Cl)c4C(F)(F)F)c4c(c23)OCCC4)C[C@@H]1CC#N [Compound B103, 2-((S)-4-(5-(3-chloro-2-(trifluoromethyl)phenyl)-8-(((S)-1-methylpyrrolidin-2-yl)methoxy)-3,4-dihydro-2H-pyrano[2,3-f]quinazolin-10-yl)-1-(2-fluoroacryloyl)piperazin-2-yl)acetonitrile]	0.00695	–
C=C(F)C(=O)N1CCN(c2ncnc3cc(-c4c(Cl)c(C)cc5[nH]ncc45)c4c(c23)OCCC4)C[C@@H]1CC#N [Compound A23, 2-((2S)-4-(5-(5-chloro-6-methyl-1H-indazol-4-yl)-3,4-dihydro-2H-pyrano[2,3-f]quinazolin-10-yl)-1-(2-fluoroacryloyl)piperazin-2-yl)acetonitrile]	0.346	–
C=C(F)C(=O)N1CCN(c2nc(OC[C@@H]3CCCN3C)nc3cc(-c4ccc(C(F)(F)F)cc4)c4ccoc4c23)C[C@@H]1CC#N [Compound B89, 2-((S)-1-(2-fluoroacryloyl)-4-(7-(((S)-1-methylpyrrolidin-2-yl)methoxy)-4-(4-(trifluoromethyl)phenyl)furo[2,3-f]quinazolin-9-yl)piperazin-2-yl)acetonitrile]	0.691	–
C=CC(=O)N1CCN(c2nc(OC[C@@H]3CCCN3C)nc3cc(-c4c(C)cccc4C)c4ccoc4c23)CC1 [Compound B56, (S)-1-(4-(4-(2,6-dimethylphenyl)-7-((1-methylpyrrolidin-2-yl)methoxy)furo[2,3-f]quinazolin-9-yl)piperazin-1-yl)prop-2-en-1-one]	0.632	–
C=C(F)C(=O)N1CCN(c2nc(OC[C@@H]3CCCN3C)nc3cc(-c4ccc(F)c5ccccc45)c4c(c23)OCCC4)C[C@@H]1CC#N [Compound B99, 2-((S)-1-(2-fluoroacryloyl)-4-(5-(4-fluoronaphthalen-1-yl)-8-(((S)-1-methylpyrrolidin-2-yl)methoxy)-3,4-dihydro-2H-pyrano[2,3-f]quinazolin-10-yl)piperazin-2-yl)acetonitrile]	0.152	–
C=CC(=O)N1CCN(c2ncnc3cc(-c4c(C)cccc4C)c4c(c23)OCCC4)C[C@@H]1CC#N [Compound A24, (S)-2-(1-acryloyl-4-(5-(2,6-dimethylphenyl)-3,4-dihydro-2H-pyrano[2,3-f]quinazolin-10-yl)piperazin-2-yl)acetonitrile]	0.262	–

Source: patent publication US20240166660A1, “KRAS G12C INHIBITORS” (BeiGene Switzerland GmbH, priority 2021, published 2024)
